Measurements as given in publication doi:10.1101/454710v1 (biorxiv, 2018).

Tests used:
Experiment in all cases: whole-cell patch clamp
Format in all cases: cell-based
Conditions in all cases: agonist; pH 7.4
heteromeric α2β GlyR = test system: heteromeric α2β GlyR
homomeric α3 GlyR = test system: homomeric α3 GlyR
heteromeric α3β GlyR = test system: heteromeric α3β GlyR
homomeric α2 GlyR = test system: homomeric α2 GlyR

EC50 (heteromeric α2β GlyR): 91 µM
EC50 (homomeric α3 GlyR): 166 µM
EC50 (heteromeric α3β GlyR): 395 µM
EC50 (homomeric α2 GlyR): 99 µM
Structure (SMILES): NCC(=O)O [glycine]
